Data as given in patent US20240173432A1, “Compositions and Methods for Treatment of Myotonic Dystrophy Type 1 with CRISPR/SluCas9” (Vertex Pharmaceuticals Incorporated, priority 2021, published 2024).

What follows are substances tested on 3′ UTR of the human DMPK gene (assay: Single-cut screening: indel editing efficiency by Sanger sequencing and ICE analysis in primary DM1 patient myoblasts). Conditions: single SluCas9 sgRNA RNP in primary DM1 patient myoblasts; Sanger sequencing and ICE analysis; vehicle-treated samples.
Assay type: cell-based
In short: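 Indels were estimated by ICE from Sanger chromatograms of PCR amplicons covering the DMPK 3′ UTR wild-type allele, using only vehicle-treated samples; sgRNAs with R2<0.9 are flagged. Samples came from primary DM1 patient myoblasts (2 × 10^5) harvested 72 h after nucleofection with 30 pmol SluCas9 and 90 pmol single sgRNA RNP.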

Row | Substance | Indel efficiency [%]
1 | GCCCCGGAGTCGAAGACAGTTC (guide RNA; chemistry not fully specified) [SluU05] | 65
2 | GCCCCGGGCACTCAGTCTTCCA (guide RNA; chemistry not fully specified) [SluU13] | 27
3 | GCCCGCCCCCTAGCggccgggg (guide RNA; as printed in the source, key not given here) [SluU40] | 3
4 | GCCCGGATCACAGGACTGGAGC (guide RNA; chemistry not fully specified) [SluU30] | 48
5 | GCCTGTCAGCGAGTCGGAGGAC (guide RNA; chemistry not fully specified) [SluD66] | 28
6 | GCGCGATCTCTGCCTGCTTACT (guide RNA; chemistry not fully specified) [SluD37] | 25
7 | GCGCGGCTTCTGTGCCGTGCCC (guide RNA; chemistry not fully specified) [SluU15] | 4
8 | GCGGTTGTGAACTGGCAGGCGG (guide RNA; chemistry not fully specified) [SluU18] | 14
9 | GCTAGGGGGCGGGCCCGGATCA (guide RNA; chemistry not fully specified) [SluU34] | 53
10 | GCTCGGAGCGGTTGTGAACTGG (listed as DNA, chemistry not fully specified) [SluU21] | 80
11 | GCTTTTGCCAAACCCGCTTTTT (guide RNA; chemistry not fully specified) [SluD40] | 5
12 | GGCCCGCCCCCTAGCggccggg (guide RNA; as printed in the source, key not given here) [SluU38] | 2

Same assay, conditions: single-cut; SluCas9 RNP; vehicle-treated samples; 72 hrs post nucleofection; wild-type allele

Row | Substance | indel efficiency (Sanger sequencing and ICE analysis)
13 | GCTCGGAGCGGTTGTGAACTGG (listed as DNA, chemistry not fully specified) [SluU21] | high editing IN4DEL efficiency

The substances below were run on CAG foci in primary DM1 patient myoblasts (assay: Single-cut screening: CAG foci staining). Conditions: single sgRNA, DNA-PKi treated.
Assay type: cell-based, human
In short: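 Primary DM1 patient myoblasts were PFA-fixed and hybridized with […] (1 ng/μL, 15 min at 80° C) in 30% formamide/2×SSC, followed by anti-MBNL1 immunostaining and Hoechst counterstain. CAG RNA foci were quantified by high-content confocal imaging after single-cut SuCas9 sgRNA editing.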

Row | Substance | % of CAG foci positive nuclei (DNA-PKi) [%]
14 | GCCCCGGAGTCGAAGACAGTTC (guide RNA; chemistry not fully specified) [SluU05] | 1.64
15 | GCCCCGGGCACTCAGTCTTCCA (guide RNA; chemistry not fully specified) [SluU13] | 1.07
16 | GCCCGCCCCCTAGCggccgggg (guide RNA; as printed in the source, key not given here) [SluU40] | 2.01
17 | GCCCGGATCACAGGACTGGAGC (guide RNA; chemistry not fully specified) [SluU30] | 2.14
18 | GCCTGTCAGCGAGTCGGAGGAC (guide RNA; chemistry not fully specified) [SluD66] | 1.94
19 | GCGCGATCTCTGCCTGCTTACT (guide RNA; chemistry not fully specified) [SluD37] | 2.15
20 | GCGCGGCTTCTGTGCCGTGCCC (guide RNA; chemistry not fully specified) [SluU15] | 1.28
21 | GCGGTTGTGAACTGGCAGGCGG (guide RNA; chemistry not fully specified) [SluU18] | 1.24
22 | GCTAGGGGGCGGGCCCGGATCA (guide RNA; chemistry not fully specified) [SluU34] | 1.03
23 | GCTCGGAGCGGTTGTGAACTGG (listed as DNA, chemistry not fully specified) [SluU21] | 0.66
24 | GCTTTTGCCAAACCCGCTTTTT (guide RNA; chemistry not fully specified) [SluD40] | 1.46
25 | GGCCCGCCCCCTAGCggccggg (guide RNA; as printed in the source, key not given here) [SluU38] | 1.56

Same assay, conditions: single sgRNA, vehicle

Row | Substance | % of CAG foci positive nuclei (Vehicle) [%]
26 | GCCCCGGAGTCGAAGACAGTTC (guide RNA; chemistry not fully specified) [SluU05] | 1.53
27 | GCCCCGGGCACTCAGTCTTCCA (guide RNA; chemistry not fully specified) [SluU13] | 1.11
28 | GCCCGCCCCCTAGCggccgggg (guide RNA; as printed in the source, key not given here) [SluU40] | 1
29 | GCCCGGATCACAGGACTGGAGC (guide RNA; chemistry not fully specified) [SluU30] | 0.67
30 | GCCTGTCAGCGAGTCGGAGGAC (guide RNA; chemistry not fully specified) [SluD66] | 1.41
31 | GCGCGATCTCTGCCTGCTTACT (guide RNA; chemistry not fully specified) [SluD37] | 1.76
32 | GCGCGGCTTCTGTGCCGTGCCC (guide RNA; chemistry not fully specified) [SluU15] | 0.75
33 | GCGGTTGTGAACTGGCAGGCGG (guide RNA; chemistry not fully specified) [SluU18] | 1.1
34 | GCTAGGGGGCGGGCCCGGATCA (guide RNA; chemistry not fully specified) [SluU34] | 0.78
35 | GCTCGGAGCGGTTGTGAACTGG (listed as DNA, chemistry not fully specified) [SluU21] | 0.68
36 | GCTTTTGCCAAACCCGCTTTTT (guide RNA; chemistry not fully specified) [SluD40] | 1.68
37 | GGCCCGCCCCCTAGCggccggg (guide RNA; as printed in the source, key not given here) [SluU38] | 0.68

The substances below were run on CUG foci in primary DM1 patient myoblasts (assay: Single-cut screening: FISH staining of CUG RNA foci). Conditions: single sgRNA; primary DM1 patient myoblasts; DNA-PKi treated.
Assay type: cell-based, human
In short: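 CD56-purified primary DM1 patient myoblasts nucleofected with SluCas9:sgRNA RNP (30:90 pmol, single-cut), then DMSO or 3 μM DNA-PK inhibitor for 48 h. At 72 h post-nucleofection, cells fixed and stained for CUG foci with Cy3-PNA(CAG)5 probe (1 ng/μL, 80 °C), co-stained for MBNL1 and Hoechst, imaged by high-content confocal microscopy.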

Row | Substance | % of CUG foci free nuclei (DNA-PKi) [%]
38 | GCCCCGGAGTCGAAGACAGTTC (guide RNA; chemistry not fully specified) [SluU05] | 61.16
39 | GCCCCGGGCACTCAGTCTTCCA (guide RNA; chemistry not fully specified) [SluU13] | 43.12
40 | GCCCGCCCCCTAGCggccgggg (guide RNA; as printed in the source, key not given here) [SluU40] | 25.77
41 | GCCCGGATCACAGGACTGGAGC (guide RNA; chemistry not fully specified) [SluU30] | 46.16
42 | GCCTGTCAGCGAGTCGGAGGAC (guide RNA; chemistry not fully specified) [SluD66] | 30.48
43 | GCGCGATCTCTGCCTGCTTACT (guide RNA; chemistry not fully specified) [SluD37] | 31.69
44 | GCGCGGCTTCTGTGCCGTGCCC (guide RNA; chemistry not fully specified) [SluU15] | 31.71
45 | GCGGTTGTGAACTGGCAGGCGG (guide RNA; chemistry not fully specified) [SluU18] | 48.57
46 | GCTAGGGGGCGGGCCCGGATCA (guide RNA; chemistry not fully specified) [SluU34] | 63.08
47 | GCTCGGAGCGGTTGTGAACTGG (listed as DNA, chemistry not fully specified) [SluU21] | 54.83
48 | GCTTTTGCCAAACCCGCTTTTT (guide RNA; chemistry not fully specified) [SluD40] | 23.44
49 | GGCCCGCCCCCTAGCggccggg (guide RNA; as printed in the source, key not given here) [SluU38] | 32.86

Same assay, conditions: single sgRNA; primary DM1 patient myoblasts; vehicle

Row | Substance | % of CUG foci free nuclei (Vehicle) [%]
50 | GCCCCGGAGTCGAAGACAGTTC (guide RNA; chemistry not fully specified) [SluU05] | 26.37
51 | GCCCCGGGCACTCAGTCTTCCA (guide RNA; chemistry not fully specified) [SluU13] | 17.02
52 | GCCCGCCCCCTAGCggccgggg (guide RNA; as printed in the source, key not given here) [SluU40] | 15.29
53 | GCCCGGATCACAGGACTGGAGC (guide RNA; chemistry not fully specified) [SluU30] | 26.92
54 | GCCTGTCAGCGAGTCGGAGGAC (guide RNA; chemistry not fully specified) [SluD66] | 13.03
55 | GCGCGATCTCTGCCTGCTTACT (guide RNA; chemistry not fully specified) [SluD37] | 6.89
56 | GCGCGGCTTCTGTGCCGTGCCC (guide RNA; chemistry not fully specified) [SluU15] | 7.97
57 | GCGGTTGTGAACTGGCAGGCGG (guide RNA; chemistry not fully specified) [SluU18] | 9.74
58 | GCTAGGGGGCGGGCCCGGATCA (guide RNA; chemistry not fully specified) [SluU34] | 19.95
59 | GCTCGGAGCGGTTGTGAACTGG (listed as DNA, chemistry not fully specified) [SluU21] | 23.65
60 | GCTTTTGCCAAACCCGCTTTTT (guide RNA; chemistry not fully specified) [SluD40] | 8.9
61 | GGCCCGCCCCCTAGCggccggg (guide RNA; as printed in the source, key not given here) [SluU38] | 7.24
